Measured values reported in ChEMBL document CHEMBL4229505, “4-Aminophenyl acetamides and propanamides as potent transient receptor potential vanilloid 1 (TRPV1) ligands” (Bioorg Med Chem, 2018).
Calls of active or inactive are those of the source. The rule behind the calls is not given here.

What was measured:
[1] = target: T1, Transient receptor potential cation channel subfamily V member 1 (Homo sapiens, UniProt Q8NER1); experiment: Agonist activity at human TRPV1 expressed in CHO cells assessed as intracellular calcium accumulation by Fluo-4 dye based FLIPR assay; type: cell-based
Mus musculus [2] = experiment: Induction of hyperthermic effect in NMRI mouse assessed as increase in body temperature at 3 mg/kg, po; type: organism-based; details: in vivo
[3] = target: T1, Transient receptor potential cation channel subfamily V member 1; experiment: Antagonist activity at human TRPV1 expressed in CHOK1 cells assessed as reduction in NADA-induced intracellular calcium level preincubated with cells followed by NADA addition measured after 5 mins by Fluo-4 dye based FLIPR assay; type: cell-based
[4] = target: T1, Transient receptor potential cation channel subfamily V member 1; experiment: Antagonist activity at human TRPV1 expressed in CHOK1 cells assessed as reduction in capsaicin-induced intracellular calcium level preincubated for 6 mins followed by capsaicin addition by Fluo-4 dye based FLIPR assay; type: cell-based
[5] = target: T1, Transient receptor potential cation channel subfamily V member 1; experiment: Antagonist activity at human TRPV1 expressed in CHOK1 cells assessed as reduction in heat-induced intracellular calcium level preincubated with cells for 5 mins followed by incubation under 45 degC by Fluo-4 dye based FLIPR assay; type: cell-based
Mus musculus [6] = experiment: Anti-hypothermic activity in NMRI mouse assessed as inhibition of capsaicin-induced […] in body temperature at 10 mg/kg, po pretreated for 15 mins followed by capsaicin treatment measured up to 120 mins relative to control; type: functional
[7] = target: T1, Transient receptor potential cation channel subfamily V member 1; experiment: Antagonist activity at human TRPV1 expressed in CHOK1 cells assessed as reduction in low pH-induced receptor activation by measuring decrease in intracellular calcium level preincubated with cells for 5 mins followed by incubation under pH 6 to 6.3 condition by Fluo-4 dye based FLIPR assay; type: cell-based
Mus musculus [8] = experiment: Anti-hypothermic activity in NMRI mouse assessed as inhibition of capsaicin-induced […] in body temperature at 3 mg/kg, po pretreated for 15 mins followed by capsaicin treatment measured up to 120 mins relative to control; type: functional
[9] = target: T1, Transient receptor potential cation channel subfamily V member 1; experiment: Partial agonist activity at human TRPV1 expressed in CHO cells assessed as intracellular calcium accumulation by Fluo-4 dye based FLIPR assay; type: cell-based

T1 sequence (Q8NER1 whole entry): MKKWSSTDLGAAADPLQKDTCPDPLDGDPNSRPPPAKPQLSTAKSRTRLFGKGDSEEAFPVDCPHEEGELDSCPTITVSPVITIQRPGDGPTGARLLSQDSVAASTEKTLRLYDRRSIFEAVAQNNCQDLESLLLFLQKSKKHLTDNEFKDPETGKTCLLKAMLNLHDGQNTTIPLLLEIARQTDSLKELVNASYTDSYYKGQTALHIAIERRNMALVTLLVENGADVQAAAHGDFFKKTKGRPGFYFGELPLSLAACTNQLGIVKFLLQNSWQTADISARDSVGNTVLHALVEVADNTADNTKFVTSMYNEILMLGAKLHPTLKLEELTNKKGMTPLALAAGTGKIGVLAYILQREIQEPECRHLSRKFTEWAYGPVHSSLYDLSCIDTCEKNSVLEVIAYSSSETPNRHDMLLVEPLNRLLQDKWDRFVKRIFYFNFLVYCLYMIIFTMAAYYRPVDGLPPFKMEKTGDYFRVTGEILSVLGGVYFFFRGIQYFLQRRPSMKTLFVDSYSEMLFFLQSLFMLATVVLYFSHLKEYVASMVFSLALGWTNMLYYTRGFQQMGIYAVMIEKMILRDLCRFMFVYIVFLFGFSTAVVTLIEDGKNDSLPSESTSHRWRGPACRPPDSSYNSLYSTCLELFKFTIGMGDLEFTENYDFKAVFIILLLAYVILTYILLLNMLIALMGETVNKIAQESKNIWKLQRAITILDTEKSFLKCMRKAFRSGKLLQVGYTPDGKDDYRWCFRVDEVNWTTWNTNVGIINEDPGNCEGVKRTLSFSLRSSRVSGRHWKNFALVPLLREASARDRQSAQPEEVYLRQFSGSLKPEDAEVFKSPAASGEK

Row | SMILES | Activity [1] | Ki ([4]; read-out: Ki) [nM] | further results
1 | CC1CCN(c2nc(C(F)(F)F)ccc2CNC(=O)C(C)c2ccc(Nc3ccccn3)cc2)CC1 (centres undefined) | Active |  | 
2 | CC1CCN(c2nc(C(F)(F)F)ccc2CNC(=O)Cc2cc(Cl)c(N)c(Cl)c2)CC1 |  | 0.3 | deltaT (Mus musculus [2]): > 1 °C; Ki [3]: 0.1 to 0.7 nM; IC50 [5]: 12.8 nM; inhibition in vivo at 10 mg/kg (Mus musculus [6]): 128%; IC50 [7]: 158 nM; inhibition in vivo at 3 mg/kg (Mus musculus [8]): 57%
3 | CC1CCN(c2nc(C(F)(F)F)ccc2CNC(=O)C(C)c2ccc(NC(=O)C3CC3)c(F)c2)CC1 (centres undefined) |  | 20 | 
4 | CC1CCN(c2nc(C(F)(F)F)ccc2CNC(=O)C(C)c2ccc(NC(=O)c3ccccc3)c(F)c2)CC1 (centres undefined) |  | 7.4 | 
5 | COc1cc(C(C)C(=O)NCc2ccc(C(F)(F)F)nc2N2CCC(C)CC2)ccc1N (centres undefined) | Active |  | 
6 | CC1CCN(c2nc(C(F)(F)F)ccc2CNC(=O)C(C)c2ccc(NC(=O)C(C)(C)C)c(F)c2)CC1 (centres undefined) |  | 51.9 | 
7 | COc1ccc(Nc2ccc(C(C)C(=O)NCc3ccc(C(F)(F)F)nc3N3CCC(C)CC3)cc2)cc1 (centres undefined) |  |  | Activity [9]: Active
8 | COc1cc(C(C)C(=O)NCc2ccc(C(F)(F)F)nc2N2CCC(C)CC2)cc(OC)c1N (centres undefined) |  | 21 | 
9 | CC1CCN(c2nc(C(F)(F)F)ccc2CNC(=O)C(C)c2ccc(NC(=O)C(C)C)c(F)c2)CC1 (centres undefined) |  | 26.4 | 
10 | CC1CCN(c2nc(C(F)(F)F)ccc2CNC(=O)C(C)c2ccc(Nc3ccc(Cl)cc3)cc2)CC1 (centres undefined) |  | 66.5 | 
11 | CC1CCN(c2nc(C(F)(F)F)ccc2CNC(=O)C(C)c2ccc(N)c(N)c2)CC1 (centres undefined) | Active |  | 
12 | COc1cc(C(C)C(=O)NCc2ccc(C(F)(F)F)nc2N2CCC(C)CC2)cc(F)c1N (centres undefined) |  |  | Activity [9]: Active
13 | CC1CCN(c2nc(C(F)(F)F)ccc2CNC(=O)C(C)c2ccc(Nc3ccccc3)cc2)CC1 (centres undefined) | Active |  | 
14 | CC1CCN(c2nc(C(F)(F)F)ccc2CNC(=O)C(C)c2cc(Cl)c(N)c(Cl)c2)CC1 (centres undefined) |  | 2.4 | 
15 | CC1CCN(c2nc(C(F)(F)F)ccc2CNC(=O)C(C)c2ccc(Nc3ccc(F)cc3)cc2)CC1 (centres undefined) |  |  | Ki [4]: Not Active
16 | CC1CCN(c2nc(C(F)(F)F)ccc2CNC(=O)C(C)c2ccc(N)c(F)c2)CC1 (centres undefined) | Active |  | 
17 | CC1CCN(c2nc(C(F)(F)F)ccc2CNC(=O)C(C)c2cc(O)c(N)c(F)c2)CC1 (centres undefined) |  | 5.3 | 
18 | Cc1cc(C(C)C(=O)NCc2ccc(C(F)(F)F)nc2N2CCC(C)CC2)ccc1N (centres undefined) | Active |  | 
